A short description of data set [1]: Single ascending maximum tolerated dose study in rat. The following applies: female Sprague-Dawley rats, 5 second IV bolus. It is filed as in vivo. How it is done:
Several compounds were assessed in single ascending maximum tolerated studies. The compounds assessed were 1810; 3408, a prodrug form of compound 1810; 1599, a chloro homologue of compound 1810; and gentamicin, an antimicrobial associated with ototoxicity. The study was carried out in female Sprague-Dawley rats (n=3 per group). All the drug solutions were prepared in water and PLASMA-LYTE A (50:50; […] was obtained from Baxter Healthcare Corporation, Deerfield, Ill.). Each group of rats were fasted overnight with access to water aJ libitum and a fixed volume (2 mL) of drug-containing solution was administered via the jugular vein catheter. Food was withheld for 3 h post dosing. Different phases of the study were classified on five different speeds of i.v, administration; Phase 1: 5 sec, Phase 2: 30 sec, Phase 3: 5 min, Phase 4: 15 min, Phase 5: 30 min. In the first and second phases, a set of predefined dose levels: 10, 25, 50, 75, 100, 150, 300, 350, 400, 450 and 500 mg/kg. Escalation to the next higher dose was conditional upon absence of signs of acute toxicity following the immediate lower dose over a 24 h period. All animals were monitored by visual inspection focused on focus on changes in skin, fur, eyes, and also respiratory, circulatory, autonomic and central nervous systems, along with somatomotor activity and behavior pattern, including tremors, convulsions, salivation, diarrhea, lethargy, sleep and coma. A dose level was deemed an MTD if […] of acute toxicity were observed and that dose was chosen for the second phase of the study where the process was repeated to determine a toxic dose. For third, fourth and fifth phases, dosing solution was infused by a Instech tethering system (Instech Laboratories Inc., Plymouth Meeting, Pa.) where the animal is freely moving within its cage, the catheter connection is held in place by a vascular access harness and a swivel system, and the drug administration is performed via a Harvard Apparatus programmable syringe pump. After dosing, the tether was removed immediately after completion of the infusion and the catheter was flushed with (100 μL) PlasmaLyte A. Surviving animals from the previous dose with no signs of toxicity were re-used in either phases of these studies upon allowing a one day drug washout period.

The nature of data set [2]: PlasmaLyte A stability study. It is filed as physicochemical. Particulars: room temperature; for % remaining: 10 mg/mL in PlasmaLyte A and milli-Q water (50:50). As to the method: (§1) LC-MS Method 1. Quantitative determination of the amount of a disclosed compound present in blood, plasma, or urinary can be determined by LC-MS/MS methods. Briefly, a suitable method involves use of calibrants (0.976, 1.95, 3.91, 7.81, 15.63, 31.25, 62.5, 125, 250, 500, 1000 ng/mL) were in sample matrix (e.g., rat plasma, blood or urine). A separate solution of disclosed compound (independent of calibrants) is used to prepare quality controls. Appropriate volumes of working solutions are added to the sample matrix to yield the final concentrations of 1, 50, 1000 ng/mL. Linearity for calibrants in duplicate is assessed by subjecting the spiked concentrations and the respective peak areas to least-square linear regression analysis with and without intercepts, and a weighted least-square regression (1/x or 1/x^2). The lowest limit of quantitation (LLOQ) in the standard curve measured with acceptable accuracy and precision for a disclosed compound from rat plasma has been previously established as 0.976 ng/mL for a representative compound, 1810. All samples are precipitated by the addition of 4-volumes (100 μL) of IS, 1369 (10 ng/mL) in methanol to a volume (25 μL) of plasma/urine test sample. The samples are vortexed (Fisher scientific, USA) for 30 sec and centrifuged at 10,000×g for 10 min at 4° C. and the supernatants are collected for LC-MS/MS analysis. Chromatographic separation is carried out using a Shimadzu Nexera XR (LC-20ADXR) liquid chromatograph (Shimadzu Corporation, USA) consisting of two pumps, online degasser, system controller and an auto sampler. Mobile phase consisting of a) water with 1.6% nonafluoropentanoic acid and 0.7% formic acid b) 90% acetonitrile with 0.8% nonafluoropentanoic acid and 0.35% formic acid can be used at a flow rate of 0.5 rnLirnin in gradient mode. A Waters® Symmetry ® 3.5μ C8, 50×2.1 mm column (Waters, Milford, Mass.) is used for the separation. Samples (5 μL) are injected on column and the eluate is provided directly to an API 5500 triple quadruple mass spectrometer (Applied Biosystems, Foster City, Calif.) equipped with a turbospray ion source operated in the positive ion mode. The optimized multiple reactions monitoring (MRM) conditions for 3408 (549.2A207.1), 1810 (469.2^207.1) and IS (418.3^207.1) are monitored with a declustering potential of 45 V and collision energy of 25 eV. Data are acquired and processed with Analyst software version 1.6.2 (Applied Biosystems, Foster City, Calif.).
Stability of compound 3408 was determined in a mixture of PlasmaLyte A and milli-Q water (50:50) at room temperature. Briefly, a 10 mg/mL solution of compound 3408 was prepared in triplicate and samples were collected (0, 1, 2, 3, 4, 5, 6 h). These samples were processed by addition of 4-volumes of methanol and quantitated by LC-MS/MS method disclosed herein in LC-MS Method 1. The percentage drug remaining at each hour was calculated with respect to the concetration at the initial time point.

The test system of data set [3] is M. tuberculosis H37Rv. Briefly: Minimum inhibitory concentration (MIC), microbroth dilution. It is filed as cell-based. Particulars: Mycobacterium tuberculosis, H37RV, 168 h, read-out: MIC (H37Rv).
A short description of data set [4]: Pharmacokinetic study in rat. It is filed as in vivo, Sprague-Dawley rats. Particulars: intravenous. As to the method:
as §1
Pharmacokinetic assessment of the disclosed compounds can be determined in a rat model as described herein. Briefly, catheterized male Sprague-Dawley rats from Harlan Bioscience (Indianapolis, Ind.), weighing 200-250 g, are kept at a 12 h light/dark cycle with access to food and water ad libitum. The procedures are approved by the Institutional Animal Care and Use Committee of the University of Tennessee Health Science Center. Formulations of a disclosed compound are prepared in water (50%) and PlasniaLyte A (50%). Test compound can be administered either via intravenous route (10 mg/kg) via femoral vein catheter with the study conducted using a group of 6 rats. Blood (250 μL) was collected via the jugular vein catheter at 0.08, 0.25, 0.5, 0.75, 1, 1.5, 2, 4, 6, 8, 10, 24 and 48 h after drug administration. Plasma was immediately separated by centrifugation (6,000×g for 10 min at 4° C.) and stored at −70° C. until analysis. The plasma concentration was determined as described herein above in LC-MS Method 1, and plasma concentration-time courses were fitted to a non-compartmental model using Phoenix WinNonlin 7.0 (Certara L. P., Princeton, NJ). Area under the concentration-time profile curve (AUC) was calculated by the log trapezoidal rule by log-linear regression and extrapolated to infinity by addition of the value Ct/λZ, where Ct is the concentration at the last time point, and λZ the terminal slope (determined by linear regression) of the log concentration-time curve. […]

Molecules are shown by their SMILES. A value given as a limit tells only on which side of the number the result lay.

The MTD is the largest dose that counted as tolerated. A word on the MIC: it is the least concentration at which growth counts as inhibited. Consider `CN[C@@H]1[C@H](O)[C@H](NC)[C@H]2O[C@]3(O)[C@H](O[C@@H]2[C@H]1O)O[C@H](C)C[C@H]3NC(=O)Cc1ccc(OP(=O)(O)O)cn1` [Compound 3408, 6-(2-oxo-2-(((2R,4R,4a5,5aR,6S,7S,8R,9S,9aR,10aS)-4a,7,9-trihydroxy-2-methyl-6,8-bis(methylamino)decahydro-2H-benzo[b]pyrano[2,3-e][1,4]dioxin-4-yl)amino)ethyl)pyridin-3-yl dihydrogen phosphate], for which the maximum tolerated dose (MTD) in data set [1] is more than 500 mg/kg. In data set [1] (female, Sprague-Dawley, rat, in vivo, iv, read-out: MTD), the MTD at 24 h is more than 500 mg/kg. Further, the “% remaining” value in data set [2] (hour 0) was 100%; in data set [2] (hour 1), 103%; in data set [2] (hour 2), 101%; in data set [2] (hour 3) it was 105%; in data set [2] (hour 4) it was 104%; in data set [2] (hour 5) it was 104%. For the same compound, the “% remaining” value in data set [2] (hour 6) came to 104%. Besides, the “time stable in solution” value in data set [2] (10 mg/mL in Plasmalyte A and milli-Q water mixture (50:50)) is listed as “at least 6 hours”. Besides, in data set [3], the MIC amounted to 100 µg/mL. In data set [4], the “In vivo conversion of prodrug to parent (in words)” value is “rapidly converted in vivo to the parent drug form”.

Source of the values: patent US20210388012A1, “METHODS AND COMPOSITIONS FOR PRODRUG FORMS OF SPECTINOMYCIN AND SPECTINAMIDE ANALOGS” (priority 2018, published 2021).
